According to patent US20260366023A1, “SORTILIN INHIBITORS FOR TREATMENT OF PATIENTS WITH FUNCTIONAL NEUROENDOCRINE TUMORS” (priority 2023, published 2026):

Experiments:
[1] = system: BON neuroendocrine tumor cells; assay: Serotonin (5HT) content of BON cell lysates after sortilin inhibition, HPLC; assay type: cell-based, human; conditions: 10 μM; 23 h in serotonin free medium, then fresh inhibitor for two more hours; compared to control
Method: (§1) (A)-(D) BON neuroendocrine tumor cells were incubated for 23 h in serotonin free medium with (Sort Inh) or without (Control) the sortilin inhibitor AF38469 (10 μM). Afterwards, the serotonin (5HT, A), Tryptophan (TRP, B) and Tyrosin (TYR, C) content as well as the content of the serotonin metabolite 5-hydroxyindoleacetic acid (5-HIAA) in the cell culture supernatant was assessed using high performance liquid chromatography (HPLC). The cells were treated with fresh sortilin inhibitor for two more hours. Subsequently, the 5HT, (E, F), TRP, (G, H) and TYR (I, J) content in the cell lysates was measured in the presence or absence of the secretion inductor of monoamines Paramethoxyamphetamin (PMA) via HPLC as well.
(§2) Next, we wanted to analyze whether sortilin has a functional role in hormone production or secretion of neuroendocrine tumors. We focused on one of the most relevant functional syndromes, i. e. the carcinoid syndrome which is caused due to the overproduction and secretion of serotonin (Clement et al., 2020). […] Afterwards we measured the serotonin (5HT) content in the cell culture supernatant by using high performance liquid chromatography (HPLC) (FIG. 3A-D). […] Subsequently, the 5HT content in the cell lysates was measured by using HPLC as well (FIG. 3E-J).

sortilin [2] = conditions: Schroder et al, 2014; cited from earlier work
[3] = Schroder et al, 2014; cited from earlier work
[4] = system: BON neuroendocrine tumor cells; assay: Serotonin (5HT) content of BON cell culture supernatant (secretion) after sortilin inhibition, HPLC; assay type: cell-based, human
Method: as §1, §2

[5] = system: murine intestinal organoids enriched with neuroendocrine cells; assay: Serotonin content of murine intestinal organoids enriched with neuroendocrine cells, HPLC; assay type: cell-based; conditions: 10 μM, four days, organoid lysates, vs control
Method: FIG. 7: Effect of sortilin inhibition on serotonin content of neuroendocrine organoids. (A) Experimental scheme for testing the effects of sortilin inhibition on serotonin levels in neuroendocrine organoids. Murine intestinal organoids are generated and enriched with neuroendocrine cells as previously described in (Kawasaki et al, 2018; Basak et al, 2017). […] Organoids are subsequently incubated four days in the absence (control) or the presence of the sortilin inhibitor AF38469 (10 μM). The lysates of these organoids are next harvested, and serotonin levels are measured by HPLC.
Some of these organoids were treated additionally four days with the sortilin inhibitor AF38469 (10 μM). Subsequently, the lysates of these organoids were harvested, and serotonin was measured by HPLC (FIG. 7A).

BON cells = assay: Alamar Blue cell proliferation/viability assay of BON cells after sortilin inhibition; assay type: cell-based, human; conditions: 5 d of sortilin inhibition
Method: FIG. 4: Proliferation of BON cells after sortilin inhibition. To exclude the possibility of toxic effects of sortilin inhibition on BON cells, a cell proliferation assay was performed using the Alamar Blue cell viability assay 5 days after sortilin inhibition.
To exclude the possibility of toxic effects of sortilin inhibition on the BON cells and thereby reducing 5HT production, we performed a cell proliferation assay using Alamar Blue.

[6] = cited from earlier work
[7] = cited from earlier work; remark: listed apart in the source
sortilin [8] = conditions: Lee et al., 2014; cited from earlier work
sortilin [9] = conditions: Phase 2 and Phase 3 clinical trials, including NCT04374136, NCT03987295, NCT03636204 and NCT05053035; cited from earlier work

In the case of Cc1cccc(NC(=O)c2ccc(C(F)(F)F)cc2C(=O)O)n1 [AF38469, 2-[[(6-methyl-2-pyridinyl)amino]carbonyl]-5-(trifluoromethyl)-benzoic acid], the “cellular content of 5HT” value [1] is given as “significantly lower”, the “selectivity for sortilin over several of its naturally occurring ligands, including neurotensin-1” value (sortilin [2]) is given as “highly selective” and the oral bioavailability [3] is given as “orally bioavailable”. The “concentration of 5HT in the supernatants” value ([4]; 10 μM, 23 h in serotonin free medium, HPLC) was “below the detection level”, the “secretion of serotonin by NEN cells” value ([4]; NEN cells, summary statement referring to the Examples) was “suppress” and the “concentration of serotonin (5HT) per cell” value [5] was “lower concentration”. For the same molecule, the “reduction in cell proliferation” value (BON cells) was “could exclude any reduction in cell proliferation”.

In the case of Cc1cc(=O)oc2c(CN[C@@H](CC(C)C)C(=O)O)c(O)ccc12 [AF40431, (2S)-2-{[(7-hydroxy-4-methyl-2-oxo-2H-chromen-8-yl)methyl]amino}-4-methylpentanoic acid], the solubility [6] is given as “comparably poor” and the membrane permeability [7] is given as “comparably poor”.

For Cc1ccc(C(C)(C)C)c(OCCN2CCCC(C)C2)c1 (stereo not drawn) [MPEP, 1-[2-(2-tert-butyl-5-methylphenoxy)-ethyl]-3-methylpiperidine], the degradation of sortilin (sortilin [8]) is given as “increasing” and the sortilin protein levels (sortilin [8]) is given as “suppressing”.

B1: AL001: anti-sortilin antibody; heavy chain having an amino acid sequence of SEQ ID NO: 1 and a light chain having an amino acid sequence of SEQ ID NO: 2 (antibody, chains of the INN, looked up, V domains shown)
VH: QVQLQESGPGLVKPSETLSLTCAVSGYSISSGYYWGWIRQPPGKGLEWIGTIYHSGSTYYNPSLKSRVTISVDTSKNQFSLKLSSVTAADTAVYYCARQGSIKQGYYGMDVWGQGTTVTVSS
VL: DIVMTQSPLSLPVTPGEPASISCRSSQSLLRSTGYNYLDWYLQKPGQSPQLLIYLGSNRASGVPDRFSGSGSGTDFTLKISRAEAEDVGVYYCMQQQEAPLTFGGGTKVEIK
In the case of B1, the “treatment of frontotemporal dementia and/or ALS” value (sortilin [9]) is listed as “successfully tested”.
